Source: ChEMBL document CHEMBL1153180, “Discovery and initial optimization of 5,5'-disubstituted aminohydantoins as potent beta-secretase (BACE1) inhibitors” (Bioorg Med Chem Lett, 2010)
≈ marks a conversion by molar mass, not a printed value.

Experiments:
[1] = Membrane permeability by PAMPA; type: ADME; details: read-out: permeability
Beta-secretase 2 = target: T1, Beta-secretase 2 (Homo sapiens, UniProt Q9Y5Z0); test: Inhibition of human BACE2 by FRET assay
T1 sequence (Q9Y5Z0 whole entry): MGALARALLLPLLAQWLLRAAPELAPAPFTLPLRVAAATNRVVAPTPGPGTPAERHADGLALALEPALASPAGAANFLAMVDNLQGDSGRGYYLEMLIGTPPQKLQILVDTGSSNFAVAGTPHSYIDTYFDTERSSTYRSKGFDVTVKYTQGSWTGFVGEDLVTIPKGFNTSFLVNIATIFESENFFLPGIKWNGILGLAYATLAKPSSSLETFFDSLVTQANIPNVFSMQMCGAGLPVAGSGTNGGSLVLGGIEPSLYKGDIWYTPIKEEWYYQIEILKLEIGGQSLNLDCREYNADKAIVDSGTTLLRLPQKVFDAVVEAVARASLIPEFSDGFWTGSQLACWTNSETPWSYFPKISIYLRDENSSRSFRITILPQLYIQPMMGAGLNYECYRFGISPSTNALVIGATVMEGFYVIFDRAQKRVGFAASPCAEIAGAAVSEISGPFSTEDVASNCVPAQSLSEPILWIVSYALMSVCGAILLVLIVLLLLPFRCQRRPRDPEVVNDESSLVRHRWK

Beta-secretase 1 [2] = target: Beta-secretase 1 (Cricetulus griseus, UniProt G3IAK4); test: Inhibition of human recombinant APP expressed in CHO-K1 cells assessed as reduction of amyloid beta level by ELISA; type: cell-based
Cathepsin D [3] = target: T2, Cathepsin D (Homo sapiens, UniProt P07339); test: Inhibition of human cathepsin D at 100 uM by FRET assay
[4] = Membrane permeability by PAMPA-BBB assay; type: ADME; details: read-out: permeability
Beta-secretase 1 [5] = target: T3, Beta-secretase 1 (Homo sapiens, UniProt P56817); test: Inhibition of human BACE1 by FRET assay
[6] = Solubility at pH 7.4; type: physicochemical; details: buffer
Cathepsin D [7] = target: T2, Cathepsin D; test: Inhibition of human cathepsin D by FRET assay
Beta-secretase 1 [8] = target: T3, Beta-secretase 1; test: Inhibition of human BACE1 at 5 uM by FRET assay

Chain of Beta-secretase 1 (Cricetulus griseus, UniProt G3IAK4) (G3IAK4 whole entry): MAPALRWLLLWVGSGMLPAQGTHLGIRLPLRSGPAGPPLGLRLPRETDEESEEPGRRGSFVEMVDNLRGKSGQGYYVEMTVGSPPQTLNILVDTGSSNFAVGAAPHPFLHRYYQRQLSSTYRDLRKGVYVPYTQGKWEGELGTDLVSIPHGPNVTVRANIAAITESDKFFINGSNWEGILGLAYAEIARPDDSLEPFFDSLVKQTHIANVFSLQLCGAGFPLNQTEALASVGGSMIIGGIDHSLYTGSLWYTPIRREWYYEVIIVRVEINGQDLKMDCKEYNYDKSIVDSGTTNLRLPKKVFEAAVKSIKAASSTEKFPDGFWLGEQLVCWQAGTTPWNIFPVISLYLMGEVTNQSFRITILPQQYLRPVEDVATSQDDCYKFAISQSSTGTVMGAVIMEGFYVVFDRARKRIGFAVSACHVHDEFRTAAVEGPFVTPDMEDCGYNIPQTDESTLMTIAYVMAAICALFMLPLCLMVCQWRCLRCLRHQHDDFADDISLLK
T2 sequence (P07339 65-162 limits assumed): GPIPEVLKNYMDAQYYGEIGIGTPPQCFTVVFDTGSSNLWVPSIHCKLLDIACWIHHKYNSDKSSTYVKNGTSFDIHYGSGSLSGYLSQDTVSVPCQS
T2 sequence (P07339 169-412 limits assumed): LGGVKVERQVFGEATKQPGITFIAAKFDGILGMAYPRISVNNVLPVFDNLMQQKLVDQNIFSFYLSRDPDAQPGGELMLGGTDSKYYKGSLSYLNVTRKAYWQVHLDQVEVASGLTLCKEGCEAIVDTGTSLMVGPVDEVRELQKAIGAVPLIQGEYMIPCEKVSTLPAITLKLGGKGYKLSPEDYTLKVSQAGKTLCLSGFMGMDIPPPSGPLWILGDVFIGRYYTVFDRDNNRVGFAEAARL
T3 sequence (P56817 whole entry): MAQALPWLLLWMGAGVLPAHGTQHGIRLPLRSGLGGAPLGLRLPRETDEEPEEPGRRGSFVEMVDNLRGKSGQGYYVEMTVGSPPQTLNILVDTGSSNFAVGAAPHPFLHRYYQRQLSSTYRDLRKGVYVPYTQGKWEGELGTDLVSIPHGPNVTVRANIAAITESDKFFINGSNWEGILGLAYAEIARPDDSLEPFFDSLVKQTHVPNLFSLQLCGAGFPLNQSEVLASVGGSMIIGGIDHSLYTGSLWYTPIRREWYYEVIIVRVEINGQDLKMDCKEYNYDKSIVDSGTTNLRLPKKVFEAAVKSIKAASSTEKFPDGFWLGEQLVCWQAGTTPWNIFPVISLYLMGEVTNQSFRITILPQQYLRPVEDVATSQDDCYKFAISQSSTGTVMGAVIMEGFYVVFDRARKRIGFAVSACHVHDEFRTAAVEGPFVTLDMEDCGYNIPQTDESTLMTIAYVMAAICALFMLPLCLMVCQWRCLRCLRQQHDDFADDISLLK

SMILES	IC50 (Beta-secretase 2) [µM]	IC50 (Beta-secretase 1 [5]) [µM]	other results
CN1C(=O)C(C2CCCCC2)(C2CCCCC2)N=C1N	0.51	1.08	Papp [1]: 29 nm/s; EC50 (Beta-secretase 1 [2]): 1.03 µM; inhibition (Cathepsin D [3]): 33%; Papp [4]: 77 nm/s; solubility [6]: > 0.1 mg/mL
NC1=NC(c2ccccc2)(C2CCCCC2)C(=O)N1CC1CCCO1 (stereo not drawn)	0.17	1.04	
Cc1ccoc1C(=O)Nc1cccc(C2(C3CCCCC3)N=C(N)N(C)C2=O)c1 (stereo not drawn)	0.03		Papp [1]: 14 nm/s; EC50 (Beta-secretase 1 [2]): 0.18 µM; IC50 (Cathepsin D [7]): 17.1 µM; Papp [4]: 137 nm/s; solubility [6]: 0.041 mg/mL (≈ 104 µM)
NC1=NC(c2ccccc2)(C2CCCCC2)C(=O)N1Cc1cc(F)cc(F)c1 (stereo not drawn)	0.41	1.08	
CCCCCCN1C(=O)C(c2ccccc2)(C2CCCCC2)N=C1N (stereo not drawn)	0.27	1.39	
NC1=NC(c2ccccc2)(C2CCCCC2)C(=O)N1CCCCCC(=O)O (stereo not drawn)	0.31	0.95	
CN1C(=O)C(c2ccccc2)(C2CCCCC2)N=C1N (stereo not drawn)	0.51	0.99	Papp [1]: 72 nm/s; EC50 (Beta-secretase 1 [2]): 0.81 µM; inhibition (Cathepsin D [3]): 38%; IC50 (Cathepsin D [7]): 24 µM; Papp [4]: 128 nm/s; solubility [6]: > 0.1 mg/mL
CN1C(=O)C(c2ccccc2)(c2ccccc2)N=C1N	0.77		Papp [1]: 30 nm/s; EC50 (Beta-secretase 1 [2]): 4.17 µM; inhibition (Cathepsin D [3]): 34%; Papp [4]: 111 nm/s; solubility [6]: > 0.1 mg/mL
NC1=NC(c2ccccc2)(C2CCCCC2)C(=O)N1CCCO (stereo not drawn)	1.65		inhibition (Beta-secretase 1 [8]): 56%
COCC(=O)Nc1cccc(C2(C3CCCCC3)N=C(N)N(C)C2=O)c1 (stereo not drawn)	0.04		
NC1=NC(c2ccccc2)(C2CCCCC2)C(=O)N1C[C@H]1CC[C@H](C(=O)O)CC1 (stereo partly drawn)	0.12	0.39	
COCCC(=O)Nc1cccc(C2(C3CCCCC3)N=C(N)N(C)C2=O)c1 (stereo not drawn)	1.85	7.86	
COc1cccc(C(=O)Nc2cccc(C3(C4CCCCC4)N=C(N)N(C)C3=O)c2)c1 (stereo not drawn)	0.49	1.36	
CN1C(=O)C(c2cccc(NC(=O)c3ccc4c(c3)OCO4)c2)(C2CCCCC2)N=C1N (stereo not drawn)	1.15	0.38	
CN1C(=O)C(c2cccc(NC(=O)c3ccco3)c2)(C2CCCCC2)N=C1N (stereo not drawn)	0.02	0.1	
NC1=NC(c2ccccc2)(c2ccccc2)C2=NCCCN12			Papp [1]: 10 nm/s; EC50 (Beta-secretase 1 [2]): 16 µM; inhibition (Cathepsin D [3]): 2%; Papp [4]: 86 nm/s; solubility [6]: 0.055 mg/mL (≈ 189 µM)
CCCC(=O)Nc1cccc(C2(C3CCCCC3)N=C(N)N(C)C2=O)c1 (stereo not drawn)	0.49	2.85	
CN1C(=O)C(c2cccc(NC(=O)c3cccn3C)c2)(C2CCCCC2)N=C1N (stereo not drawn)	0.18		
NC1=NC(c2ccccc2)(C2CCCCC2)C(=O)N1Cc1ccccc1 (stereo not drawn)	0.57	1.24	
